Laboratory results published in patent US20250230171A1 (MOMA Therapeutics, Inc., priority 2023, published 2025).

Each compound was assayed against biotinylated Avi-POLθ[2-894] (Homo sapiens (Human), UniProt O75417) (assay: POLθ ATPase assay (ADP-Glo)). Conditions: POLθ ATPase, ADP-Glo; n=2; read-out: Biochemical ATPase ADPGlo IC50.
Protocol: In some embodiments, the ATPase assay a compound of the present disclosure is combined with biotinylated Avi-POLθ[2-894], a 50 nucleotide poly-thymine repeat single-stranded DNA, and ATP in buffer. In some embodiments, the mixture is incubated and ADP-Glo Reagent added, followed by a subsequent incubation. In some embodiments, a Kinase Detection Reagent may be added, followed by a third incubation. In some embodiments, the activity is measured via luminescence signal (e.g., measured with the EnVision multimode plate reader). POLθ-mediated ATP hydrolysis was measured using the ADP-Glo Kinase Assay (Promega Corporation, Madison, WI). Reactions were performed in white 384-well small-volume microplates (Greiner Bio-One, Frickenhausen, Germany) using a total volume of 15 μL. The ATPase reaction consisted of 1 nM biotinylated Avi-POLθ[2-894], 5 nM of a 50 nucleotide poly-thymine repeat single-stranded DNA (PolyT(50) ssDNA), and 100 μM ATP in 5 μL of assay buffer (50 mM Tris, pH 7.5, 80 mM KCl, 10 MgCl2, 1 mM DTT, 5% glycerol, 0.01% BSA, 0.01% Tween-20). Inhibition of POLΘATPase activity was determined by preparing 11-point serial dilutions of the test compounds in 100% DMSO, then transferring 30 nL of the compounds into the ATPase reaction using an Echo acoustic liquid handler (Beckman Coulter, Brea, CA). DMSO-treated wells containing either all of the reaction components (1 nM biotinylated Avi-POLθ[2-894], 5 nM PolyT(50) ssDNA, 100 μM ATP) or with assay buffer substituted for the biotinylated Avi-POLθ[2-894](0 nM biotinylated Avi-POLθ[2-894], 5 nM PolyT(50) ssDNA, 100 μM ATP) were used to define the maximum and minimum response in the assay. Following a one-hour incubation at ambient temperature, 5 μL of ADP-Glo Reagent was added to the ATPase reaction, and this mixture was allowed to incubate at ambient temperature for an additional hour. Lastly, 5 μL of Kinase Detection Reagent was added, followed by a third one-hour incubation at ambient temperature. […] Luminescence signal was measured using the EnVision multimode plate reader (Perkin Elmer. Waltham. MA). […] Non-linear regression analysis using the four-parameter logistic equation was conducted on the percent activity values of the compound dose-responses, yielding the AC50 value for each compound. Genedata Screener (Genedata. Basel, Switzerland) was used for the data analysis.

Chain of biotinylated Avi-POLθ[2-894] (O75417 2-894): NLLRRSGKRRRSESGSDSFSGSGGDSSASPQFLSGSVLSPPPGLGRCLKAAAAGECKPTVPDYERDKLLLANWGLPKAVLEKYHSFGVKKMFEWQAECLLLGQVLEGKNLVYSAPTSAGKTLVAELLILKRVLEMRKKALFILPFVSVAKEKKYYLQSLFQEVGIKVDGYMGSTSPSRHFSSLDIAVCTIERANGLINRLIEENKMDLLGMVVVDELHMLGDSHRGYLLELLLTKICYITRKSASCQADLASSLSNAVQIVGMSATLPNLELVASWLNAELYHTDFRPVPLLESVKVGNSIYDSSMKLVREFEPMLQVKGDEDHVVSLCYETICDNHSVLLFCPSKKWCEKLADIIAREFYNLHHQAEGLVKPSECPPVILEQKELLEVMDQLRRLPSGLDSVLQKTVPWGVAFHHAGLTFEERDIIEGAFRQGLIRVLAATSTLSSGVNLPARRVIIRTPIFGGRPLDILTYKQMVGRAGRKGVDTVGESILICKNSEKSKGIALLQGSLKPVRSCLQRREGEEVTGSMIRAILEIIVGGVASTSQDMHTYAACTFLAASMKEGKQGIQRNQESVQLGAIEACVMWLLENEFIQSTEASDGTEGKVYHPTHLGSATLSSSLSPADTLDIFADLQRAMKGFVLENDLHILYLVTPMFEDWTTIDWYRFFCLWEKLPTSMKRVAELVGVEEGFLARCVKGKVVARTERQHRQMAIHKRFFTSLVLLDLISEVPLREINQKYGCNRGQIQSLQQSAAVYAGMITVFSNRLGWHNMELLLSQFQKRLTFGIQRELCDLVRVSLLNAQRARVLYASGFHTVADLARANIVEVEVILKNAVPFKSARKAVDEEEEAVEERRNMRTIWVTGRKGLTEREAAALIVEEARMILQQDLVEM

IC50 | SMILES
150 to 900 nM | COc1cnc(Cl)cc1-c1cc(C)ncc1C(=O)Nc1nc2c(s1)C[C@@H](C(=O)N1CC[C@@H](O)C1)CC2 [Example 681]
150 to 900 nM | COc1cnc(Cl)cc1-c1cc(C)ncc1C(=O)Nc1nc2c(s1)CN(C(=O)C1CCCC(OC(F)F)C1)C2 (stereo not drawn)
150 to 900 nM | COc1cnc(Cl)cc1-c1cc(C)ncc1C(=O)Nc1nc2c(s1)C[C@@H](C(=O)N[C@H]1CC[C@@H]1O)CC2

Same assay, conditions: n=2; read-out: Biochemical ATPase ADPGlo IC50

SMILES | IC50
COc1ccccc1-c1cc(C)ncc1C(=O)Nc1nc2c(s1)CN(C(=O)C1C3COCC31)C2 (stereo not drawn) | 150 to 900 nM
COc1ccccc1-c1cc(C)ncc1C(=O)Nc1nc2c(s1)CN(C(=O)c1ccn(C)c(=O)c1)C2 | 150 to 900 nM
COc1ccccc1-c1cc(C)ncc1C(=O)Nc1nc2c(s1)CN(C(=O)C1(C#N)CC1)C2 | ≥ 900 nM
COc1ccccc1-c1cc(C)ncc1C(=O)Nc1nc2c(s1)CN(C(=O)c1cncc(C#N)c1)C2 | 50 to 150 nM
COc1ccc(C#N)cc1-c1cc(C)ncc1C(=O)Nc1nc2c(s1)CN(C(=O)[C@@H]1CCCO1)CC2 | 150 to 900 nM
COc1ccc(C#N)cc1-c1cc(C)ncc1C(=O)Nc1nc2c(s1)CN(S(=O)(=O)NC1CCCC1)C2 [Example 230] | 1 to 15 nM
COCC1(C(=O)N2Cc3nc(NC(=O)c4cnc(C)cc4-c4ccccc4OC)sc3C2)CCC1 (racemic) | 150 to 900 nM
COc1ccc(C#N)cc1-c1cc(C)ncc1C(=O)Nc1nc2c(s1)CN(S(=O)(=O)C1CCOCC1)C2 | 50 to 150 nM
COc1ccccc1-c1cc(C)ncc1C(=O)Nc1nc2c(s1)CN(C(=O)C13CC(C#N)(C1)C3)C2 | 150 to 900 nM
COc1ccccc1-c1cc(C)ncc1C(=O)Nc1nc2c(s1)CC(c1ccc(Cl)cc1)=CC2 [Example 328] | 150 to 900 nM
COc1ccc(C#N)cc1-c1cc(C)ncc1C(=O)Nc1nc2c(s1)CN(S(=O)(=O)C1CCCC1)CC2 | 150 to 900 nM
COc1ccc(C#N)cc1-c1cc(C)ncc1C(=O)Nc1nc2c(s1)CN(C(=O)[C@@H]1CC[C@@H]1C)C2 | 15 to 50 nM
CCNS(=O)(=O)N1Cc2nc(NC(=O)c3cnc(C)cc3-c3ccccc3OC)sc2C1 | 15 to 50 nM
COc1ccccc1-c1cc(C)ncc1C(=O)Nc1nc2c(s1)CN(S(=O)(=O)NC(C)C)C2 [Example 280] | 50 to 150 nM
COc1ccccc1-c1cc(C)ncc1C(=O)Nc1nc2c(s1)CN(C(=O)c1cnco1)C2 | 150 to 900 nM
COc1ccc(C#N)cc1-c1cc(C)ncc1C(=O)Nc1nc2c(s1)CN(C(=O)c1ccncc1)CC2 (racemic) [Example 213] | 150 to 900 nM
COc1ccc(C#N)cc1-c1cc(C)ncc1C(=O)Nc1nc2c(s1)CN(S(=O)(=O)N1CCCC1)CC2 | 50 to 150 nM
COc1ccccc1-c1cc(C)ncc1C(=O)Nc1nc2c(s1)CN(C(=O)c1ncco1)C2 | 50 to 150 nM
COc1cnc(Cl)cc1-c1cc(C)ncc1C(=O)Nc1nc2c(s1)CC(N1CCC(O)CC1)CC2 (racemic) [Example 109, (Racemic)-2′-chloro-N-(6-(4-hydroxypiperidin-1-yl)-4,5,6,7-tetrahydrobenzo[d]thiazol-2-yl)-5′-methoxy-6-methyl-[4,4′-bipyridine]-3-carboxamide] | 150 to 900 nM
COc1ccccc1-c1cc(C)ncc1C(=O)Nc1nc2c(s1)CN(C(=O)C1CCN(C)C1=O)C2 (stereo not drawn) | ≥ 900 nM

The remaining lines, values ahead:

IC50 | SMILES
150 to 900 nM | COc1ccc(C#N)cc1-c1cc(C)ncc1C(=O)Nc1nc2c(s1)CN(C(=O)C1COC1)CC2 (single isomer, unassigned)
1 to 15 nM | COc1cnc(Cl)cc1-c1cc(C)ncc1C(=O)Nc1nc2c(s1)CN(C(=O)[C@H]1CCCCO1)C2 [Example 186]
1 to 15 nM | COc1cnc(Cl)cc1-c1cc(C)ncc1C(=O)Nc1nc2c(s1)CN(C(=O)c1cnn(CC(F)F)c1)C2
150 to 900 nM | COc1cnc(Cl)cc1-c1cc(C)ncc1C(=O)Nc1nc2c(s1)CC(NC1CCC1)CC2 (racemic) [Example 134]
15 to 50 nM | COc1cnc(Cl)cc1-c1cc(C)ncc1C(=O)Nc1nc2c(s1)CN(C(=O)C1CC(OC)(C(F)(F)F)C1)C2 (racemic) [Example 103, (Racemic)-2′-chloro-5′-methoxy-N-(5-(3-methoxy-3-(trifluoromethyl)cyclobutane-1-carbonyl)-5,6-dihydro-4H-pyrrolo[3,4-d]thiazol-2-yl)-6-methyl-[4,4′-bipyridine]-3-carboxamide]
1 to 15 nM | COc1cnc(Cl)cc1-c1cc(C)ncc1C(=O)Nc1nc2c(s1)CN(C(=O)c1ncc(C)cn1)C2 [Example 34, 2′-chloro-5′-methoxy-6-methyl-N-(5-(5-methylpyrimidine-2-carbonyl)-5,6-dihydro-4H-pyrrolo[3,4-d]thiazol-2-yl)-[4,4′-bipyridine]-3-carboxamide]
15 to 50 nM | COc1cnc(Cl)cc1-c1cc(C)ncc1C(=O)Nc1nc2c(s1)CN(C(=O)[C@@H]1C[C@@H]1C(F)F)C2 [Example 104, 2′-chloro-N-(5-((1R,2S)-2-(difluoromethyl)cyclopropane-1-carbonyl)-5,6-dihydro-4H-pyrrolo[3,4-d]thiazol-2-yl)-5′-methoxy-6-methyl-[4,4′-bipyridine]-3-carboxamide]
150 to 900 nM | COc1cnc(Cl)cc1-c1cc(C)ncc1C(=O)Nc1nc2c(s1)C[C@H](NC(=O)[C@H]1C[C@@H](O)C1)CC2 (racemic) [Example 144]
15 to 50 nM | COc1cnc(Cl)cc1-c1cc(C)ncc1C(=O)Nc1nc2c(s1)CN(C(=O)[C@H]1C[C@](F)(CO)C1)C2 [Example 105, 2′-chloro-N-(5-((1s,3s)-3-fluoro-3-(hydroxymethyl)cyclobutane-1-carbonyl)-5,6-dihydro-4H-pyrrolo[3,4-d]thiazol-2-yl)-5′-methoxy-6-methyl-[4,4′-bipyridine]-3-carboxamide]
150 to 900 nM | COc1ccccc1-c1cc(C)ncc1C(=O)Nc1nc2c(s1)CN(C(=O)C1COCCO1)C2 (stereo not drawn)
15 to 50 nM | COc1cnc(Cl)cc1-c1cc(C)ncc1C(=O)Nc1nc2c(s1)CN(C(=O)C1CN(CC(F)F)C1)C2 [Example 24, 2′-chloro-N-(5-(1-(2,2-difluoroethyl)azetidine-3-carbonyl)-5,6-dihydro-4H-pyrrolo[3,4-d]thiazol-2-yl)-5′-methoxy-6-methyl-[4,4′-bipyridine]-3-carboxamide]
15 to 50 nM | COc1cnc(Cl)cc1-c1cc(C)ncc1C(=O)Nc1nc2c(s1)CN(C(=O)[C@H]1CC[C@@H](O)CC1)C2 [Example 115]
1 to 15 nM | COc1cnc(Cl)cc1-c1cc(C)ncc1C(=O)Nc1nc2c(s1)CN(C(=O)C1CCC(OC)C1)C2 (racemic) [Example 101, (Racemic)-2′-chloro-5′-methoxy-N-(5-(3-methoxycyclopentane-1-carbonyl)-5,6-dihydro-4H-pyrrolo[3,4-d]thiazol-2-yl)-6-methyl-[4,4′-bipyridine]-3-carboxamide]
1 to 15 nM | COc1cnc(Cl)cc1-c1cc(C)ncc1C(=O)Nc1nc2c(s1)CN(C(=O)[C@H]1C[C@@](C)(O)C1)C2 [Example 193]
1 to 15 nM | COc1cnc(Cl)cc1-c1cc(C)ncc1C(=O)Nc1nc2c(s1)CN(C(=O)N1CC(OC(F)F)C1)C2
1 to 15 nM | COc1cnc(Cl)cc1-c1cc(C)ncc1C(=O)Nc1nc2c(s1)CN(C(=O)c1ncon1)C2 [Example 60, N-(5-(1,2,4-oxadiazole-3-carbonyl)-5,6-dihydro-4H-pyrrolo[3,4-d]thiazol-2-yl)-2′-chloro-5′-methoxy-6-methyl-[4,4′-bipyridine]-3-carboxamide]
1 to 15 nM | COc1ccc(C#N)cc1-c1cc(C)ncc1C(=O)Nc1nc2c(s1)CN(C(=O)C1CC(C)C1)C2 (stereo not drawn) [Example 189]
1 to 15 nM | COc1cnc(Cl)cc1-c1cc(C)ncc1C(=O)Nc1nc2c(s1)CN(C(=O)c1cn(C)nc1C(F)F)C2 [Example 173]
1 to 15 nM | COc1cnc(Cl)cc1-c1cc(C)ncc1C(=O)Nc1nc2c(s1)CN(C(=O)c1cnn(C)c1C(F)F)C2 [Example 91, 2′-chloro-N-(5-(5-(difluoromethyl)-1-methyl-1H-pyrazole-4-carbonyl)-5,6-dihydro-4H-pyrrolo[3,4-d]thiazol-2-yl)-5′-methoxy-6-methyl-[4,4′-bipyridine]-3-carboxamide]
150 to 900 nM | COc1cnc(Cl)cc1-c1cc(C)ncc1C(=O)Nc1nc2c(s1)C[C@@H](C(=O)NC1CCC1)CC2 (single isomer, unassigned) [Example 29, (S or R)-2-(2′-chloro-5′-methoxy-6-methyl-[4,4′-bipyridine]-3-carboxamido)-N-cyclobutyl-4,5,6,7-tetrahydrobenzo[d]thiazole-6-carboxamide]
15 to 50 nM | COc1cnc(Cl)cc1-c1cc(C)ncc1C(=O)Nc1nc2c(s1)CN(C(=O)C1CN(CC(F)(F)F)C1)C2 [Example 120]
1 to 15 nM | COc1cnc(Cl)cc1-c1cc(C)ncc1C(=O)Nc1nc2c(s1)CN(C(=O)[C@H]1CCCOC1)C2 [Example 183]
